In EP0934303B1, “COMPOUNDS USEFUL FOR INHIBITION OF FARNESYL PROTEIN TRANSFERASE” (SCHERING CORPORATION, priority 1996, dated 1998) one finds IC50 data, which are given here for 32 molecules.

The target of assay [1] is farnesyl protein transferase (Homo sapiens, UniProt P49354+P49356). Nature of the assay: FPT IC50, inhibition of farnesyl protein transferase, in vitro enzyme assay (procedure of WO 95/10516). The format is biochemical. Conditions: one range stated for the whole list of compounds. As for the experimental part:
(§1) FPT IC50 (inhibition of farnesyl protein transferase, in vitro enzyme assay), GGPT IC50 (inhibition of geranylgeranyl protein transferase, in vitro enzyme assay) and COS Cell IC50 (Cell-Based Assay) were determined following the assay procedures described in WO 95/10516, published April 20, 1995. Cell Mat Assay, and anti-tumor activity (in vivo anti-tumor studies) could be determined by the assay procedures described in WO 95/10516. The disclosure of WO 95/10516 is incorporated herein by reference thereto.

Assay [2] has as its system COS Cell. Nature of the assay: COS Cell IC50 (Cell-Based Assay, procedure of WO 95/10516). The conditions noted are these: one range stated for the whole list of compounds. As for the experimental part: as §1
Assay [3] relates to Human tumor cells. As to the kind of experiment: Soft Agar Assay (anchorage-independent growth, colony count after MTT staining). The format is cell-based. Conditions: one range stated for the whole list of compounds. As for the experimental part: Anchorage-independent growth is a characteristic of tumorigenic cell lines. Human tumor cells are suspended in growth medium containing 0.3% agarose and an indicated concentration of a farnesyl transferase inhibitor. The solution is overlayed onto growth medium solidified with 0.6% agarose containing the same concentration of farnesyl transferase inhibitor as the top layer. After the top layer is solidified, plates are incubated for 10-16 days at 37°C under 5% CO2 to allow colony outgrowth. After incubation, the colonies are stained by overlaying the agar with a solution of MTT (3-[4,5-dimethylthiazol-2-yl]-2,5-diphenyltetrazolium bromide, Thiazolyl blue) (1 mg/mL in PBS). Colonies can be counted and the IC50's can be determined.

The target in assay [4] is geranylgeranyl protein transferase (Rattus norvegicus, UniProt P53610+Q04631). Nature of the assay: GGPT IC50, inhibition of geranylgeranyl protein transferase, in vitro enzyme assay (procedure of WO 95/10516). The class given is biochemical. As for the experimental part: as §1
Setting [5] is: H-ras, read-out: FPT IC50 (H-ras).
Where [6] appears, read: K-ras, read-out: FPT IC50 (K-ras).

Read-outs that look alike come from different tables or passages of the source.

Sequence of farnesyl protein transferase (P49356 whole entry, one chain of several): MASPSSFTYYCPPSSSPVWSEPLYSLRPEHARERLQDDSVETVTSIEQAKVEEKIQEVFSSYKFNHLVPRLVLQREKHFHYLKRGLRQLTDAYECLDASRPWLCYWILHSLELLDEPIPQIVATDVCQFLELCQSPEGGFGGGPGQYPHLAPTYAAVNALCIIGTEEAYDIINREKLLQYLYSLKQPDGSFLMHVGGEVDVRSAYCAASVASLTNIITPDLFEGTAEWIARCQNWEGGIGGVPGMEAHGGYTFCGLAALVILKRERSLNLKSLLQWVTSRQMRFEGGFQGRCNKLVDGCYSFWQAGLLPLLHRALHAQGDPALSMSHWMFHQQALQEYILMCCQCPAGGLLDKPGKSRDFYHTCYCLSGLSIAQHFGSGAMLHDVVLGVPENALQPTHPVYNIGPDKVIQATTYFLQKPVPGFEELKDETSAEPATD

With `N=C(Oc1ccccc1)N1CCC(CC(=O)N2CCC(C3c4ccc(Cl)c(Br)c4CCc4cc(Br)cnc43)CC2)CC1` (racemic) [Compound 26.0], the IC50 – broadly, the concentration that gives 50% inhibition – in assay [1] (setting [5]) is ≥ 0.8 nM.

With `CCn1cccc1C(=O)N1CCC(CC(=O)N2CCC([C@H]3c4ncc(Br)cc4CCc4cc(Cl)cc(Br)c43)CC2)CC1` [Compound 40.0-B], the results for the IC50 in assay [1] (setting [5]), in assay [2] and in assay [3] were ≥ 0.8 nM, ≥ 7 nM and ≥ 90 nM, respectively.

Consider `N#CN1CCC(CC(=O)N2CCC([C@H]3c4ncc(Br)cc4CCc4cc(Cl)cc(Br)c43)CC2)CC1` [Compound 29.0], for which the IC50 was ≥ 0.8 nM in assay [1] (setting [5]) and ≥ 12 nM in assay [2].

Regarding `O=C(CC1CCN(C(=O)c2ncccc2O)CC1)N1CCC([C@H]2c3ncc(Br)cc3CCc3cc(Cl)cc(Br)c32)CC1` [Compound 83.0-B], the IC50 in assay [2] is ≥ 7 nM; in assay [3], ≥ 90 nM.

Consider `NC(=O)c1cncc(C(=O)N2CCC(CC(=O)N3CCC([C@H]4c5ncc(Br)cc5CCc5cc(Cl)cc(Br)c54)CC3)CC2)c1` [Compound 29.0-B], for which the IC50 in assay [2] was ≥ 7 nM; in assay [3] it was ≥ 90 nM.

As to `O=C(CC1CCN(C(=O)c2cn[nH]c2)CC1)N1CCC([C@H]2c3ncc(Br)cc3CCc3cc(Cl)cc(Br)c32)CC1` [Compound 31.0-B], the IC50 in assay [2] is ≥ 7 nM; in assay [3], ≥ 90 nM.

With `N=C(Oc1ccccc1)N1CCC(CC(=O)N2CCN(C3c4ccc(Cl)cc4CCc4cc(Br)cnc43)CC2)CC1` (stereo not drawn) [Compound 4.0, PHENYL 4-[2-[4-(3-BROMO-8-CHLORO-6,11-DIHYDRO-5H-BENZO[5,6]CYCLOHEPTA[1,2-b]PYRIDIN-11-YL)-1-PIPERAZINYL]-2-OXOETHYL]-1-PIPERIDINECARBOXIMIDATE], in assay [1] (setting [5]), the IC50 is ≥ 0.8 nM.

For `O=C1C[C@@H](C(=O)N2CCC(CC(=O)N3CCC([C@H]4c5ncc(Br)cc5CCc5cc(Cl)cc(Br)c54)CC3)CC2)NC(=O)N1` [Compound 78.0-B], the IC50 in assay [2] is ≥ 7 nM; in assay [3], ≥ 90 nM.

Regarding `Cc1noc(C)c1C(=O)N1CCC(CC(=O)N2CCC([C@H]3c4ncc(Br)cc4CCc4cc(Cl)cc(Br)c43)CC2)CC1` [Compound 27.0-B], the IC50 is ≥ 7 nM in assay [2] and ≥ 90 nM in assay [3].

As for `N#CN1CCC(CC(=O)N2CCC(C3c4ccc(Cl)c(Br)c4CCc4cc(Br)cnc43)CC2)CC1` (stereo not drawn) [Compound 28.0], the IC50 in assay [1] (setting [5]) was ≥ 0.8 nM; in assay [1] (setting [6]) it was 16 to 782 nM; in assay [4], > 9600 nM; in assay [2] it was ≥ 12 nM.

`CON=C(N)N1CCC(CC(=O)N2CCN(C3c4ccc(Cl)cc4CCc4cc(Br)cnc43)CC2)CC1` (stereo not drawn) [Compound 13.0, 4-[2-[4-(3-BROMO-8-CHLORO-6,11-DIHYDRO-5H-BENZO[5,6]CYCLOHEPTA[1,2-b]PYRIDIN-11-YL)-1-PIPERAZINYL]-2-OXOETHYL]-N-METHOXY-1-PIPERIDINE-CARBOXIMIDATE]: in assay [1] (setting [5]), the IC50 is ≥ 0.8 nM.

As for `O=C(CC1CCN(C(=O)c2cccnc2O)CC1)N1CCC([C@H]2c3ncc(Br)cc3CCc3cc(Cl)cc(Br)c32)CC1` [Compound 48.0-B], the figures for the IC50 in assay [2] and in assay [3] were ≥ 7 nM and ≥ 90 nM, respectively.

Regarding `O=C(O)c1cncc(C(=O)N2CCC(CC(=O)N3CCC([C@H]4c5ncc(Br)cc5CCc5cc(Cl)cc(Br)c54)CC3)CC2)c1` [Compound 25.0-B], the values for the IC50 in assay [2] and in assay [3] were ≥ 7 nM and ≥ 90 nM, respectively.

As to `O=C(CC1CCN(C(=O)c2ccc[n+]([O-])c2)CC1)N1CCC([C@H]2c3ncc(Br)cc3CCc3cc(Cl)cc(Br)c32)CC1` [Compound 46.0-B], the values for the IC50 in assay [2] and in assay [3] were ≥ 7 nM and ≥ 90 nM, respectively.

Turning to `N=C(NCc1cccnc1)N1CCC(CC(=O)N2CCC(C3c4ccc(Cl)c(Br)c4CCc4cc(Br)cnc43)CC2)CC1` (stereo not drawn) [Compound 31.0], the IC50 in assay [1] (setting [5]) is ≥ 0.8 nM; in assay [1] (setting [6]), 16 to 782 nM; in assay [4], > 7500 nM; in assay [2] it was ≥ 12 nM.

For `O=C(CC1CCN(C(=O)c2ccc(O)nc2)CC1)N1CCC([C@H]2c3ncc(Br)cc3CCc3cc(Cl)cc(Br)c32)CC1` [Compound 47.0-B], the figures for the IC50 in assay [2] and in assay [3] were ≥ 7 nM and ≥ 90 nM, respectively.

With `O=C(CC1CCN(C(=O)c2ccoc2)CC1)N1CCC([C@H]2c3ncc(Br)cc3CCc3cc(Cl)cc(Br)c32)CC1` [Compound 84.0-B], the IC50 in assay [2] is ≥ 7 nM; in assay [3], ≥ 90 nM.

In the case of `N=C(NC(=O)NC(N)=O)N1CCC(CC(=O)N2CCN(C3c4ccc(Cl)cc4CCc4cc(Br)cnc43)CC2)CC1` (stereo not drawn) [Compound 17.1, N-[[(AMINOCARBONYL)AMINO]CARBONYL]-4-[2-[4-(3-BROMO-8-CHLORO-6,11-DIHYDRO-5H-BENZO[5,6]CYCLOHEPTA[1,2-b]-PYRIDIN-11-YL)-1-PIPERAZINYL]-2-OXOETHYL]-1-PIPERIDINECARBOXIMIDAMIDE], the IC50 in assay [1] (setting [5]) was ≥ 0.8 nM.

Regarding `NC(=O)NC(=O)N=C(Oc1ccccc1)N1CCC(CC(=O)N2CCN(C3c4ccc(Cl)cc4CCc4cc(Br)cnc43)CC2)CC1` (stereo not drawn) [Compound 16.1, PHENYL N-[[(AMINOCARBONYL)AMINO]CARBONYL]-4-[2-[4-(3-BROMO-8-CHLORO-6,11-DIHYDRO-5H-BENZO[5,6]CYCLOHEPTA-[1,2-b]PYRIDIN-11-YL)-1-PIPERAZINYL]-2-OXOETHYL]-1-PIPERIDINECARBOXIMIDATE], the IC50 in assay [1] (setting [5]) was ≥ 0.8 nM.

On to `N#CN=C(Oc1ccccc1)N1CCC(CC(=O)N2CCN(C3c4ccc(Cl)cc4CCc4cc(Br)cnc43)CC2)CC1` (stereo not drawn) [Compound 2.0, PHENYL 4-[2-[4-(3-BROMO-8-CHLORO-6,11-DIHYDRO-5H-BENZO[5,6]CYCLOHEPTA[1,2-b]PYRIDIN-11-YL)-1-PIPERAZINYL]-2-OXOETHYL]-N-CYANO-1-PIPERIDINE- CARBOXIMIDATE], for which, in assay [1] (setting [5]), the IC50 is ≥ 0.8 nM.

For the molecule `N=C(Oc1ccccc1)N1CCC(CC(=O)N2CCC([C@H]3c4ncc(Br)cc4CCc4cc(Cl)cc(Br)c43)CC2)CC1` [Compound 27.0], the IC50 in assay [1] (setting [5]) was ≥ 0.8 nM; in assay [1] (setting [6]), 16 to 782 nM; in assay [2], ≥ 12 nM; in assay [3] it was ≥ 90 nM.

With `O=C(CC1CCN(C(=O)[C@@H]2CSCN2)CC1)N1CCC([C@H]2c3ncc(Br)cc3CCc3cc(Cl)cc(Br)c32)CC1` [Compound 80.0-B], in assay [3], the IC50 was ≥ 90 nM.

`O=C1N[C@H](C(=O)N2CCC(CC(=O)N3CCC([C@H]4c5ncc(Br)cc5CCc5cc(Cl)cc(Br)c54)CC3)CC2)CO1` [Compound 28.0-B]: the IC50 in assay [2] was ≥ 7 nM; in assay [3] it was ≥ 90 nM.

In the case of `O=C(CC1CCN(C(=O)c2cc[n+]([O-])cc2)CC1)N1CCC([C@H]2c3ncc(Br)cc3CCc3cc(Cl)cc(Br)c32)CC1` [Compound 45.0-B], the values for the IC50 in assay [2] and in assay [3] were ≥ 7 nM and ≥ 90 nM, respectively.

In the case of `O=C(CC1CCN(C(=O)N2CCOCC2)CC1)N1CCC([C@H]2c3ncc(Br)cc3CCc3cc(Cl)cc(Br)c32)CC1` [Compound 100.0-B], the 50% inhibitory concentration (IC50) was ≥ 7 nM in assay [2] and ≥ 90 nM in assay [3].

Take `N#CNC(=N)N1CCC(CC(=O)N2CCN(C3c4ccc(Cl)cc4CCc4cc(Br)cnc43)CC2)CC1` (stereo not drawn) [Compound 3.0, 4-[2-[4-(3-BROMO-8-CHLORO-6,11-DIHYDRO-5H-BENZO[5,6]CYCLOHEPTA[1,2-b]PYRIDIN-11-YL)-1-PIPERAZINYL]-2-OXOETHYL]-N-CYANO-1-PIPERIDINE-CARBOXIMIDAMIDE]: in assay [1] (setting [5]), the IC50 is ≥ 0.8 nM.

Regarding `N#CN1CCC(CC(=O)N2CCN(C3c4ccc(Cl)cc4CCc4cc(Br)cnc43)CC2)CC1` (stereo not drawn) [Compound 5.0], the IC50 in assay [1] (setting [5]) was ≥ 0.8 nM.

As for `N=C(NS(N)(=O)=O)N1CCC(CC(=O)N2CCN(C3c4ccc(Cl)cc4CCc4cc(Br)cnc43)CC2)CC1` (stereo not drawn) [Compound 7.0, 4-[2-[4-(3-BROMO-8-CHLORO-6,11-DIHYDRO-5H-BENZO[5,6]CYCLOHEPTA[1,2-b]PYRIDIN-11-YL)-1-PIPERAZINYL]-2-OXOETHYL]-N-SULFAMOYL-1-PIPERIDINE-CARBOXIMIDAMIDE], the IC50 in assay [1] (setting [5]) was ≥ 0.8 nM.

For the molecule `CC(=O)N1CCC(CC(=O)N2CCC([C@H]3c4ncc(Br)cc4CCc4cc(Cl)cc(Br)c43)CC2)CC1` [Compound 36.0-B], the IC50 was ≥ 7 nM in assay [2] and ≥ 90 nM in assay [3].

In the case of `N=C(N)N1CCC(CC(=O)N2CCC(C3c4ccc(Cl)c(Br)c4CCc4cc(Br)cnc43)CC2)CC1` (stereo not drawn) [Compound 30.0], the IC50 in assay [1] (setting [5]) was ≥ 0.8 nM; in assay [2], ≥ 12 nM.

Regarding `CC(=O)OC1CCC(C(=O)N2CCC(CC(=O)N3CCC(C4c5ncc(Br)cc5CCc5cc(Cl)cc(Br)c54)CC3)CC2)CC1` (stereo not drawn) [Compound 66.0-B], the IC50 in assay [2] is ≥ 7 nM; in assay [3], ≥ 90 nM.

For the molecule `NC(=NO)N1CCC(CC(=O)N2CCN(C3c4ccc(Cl)cc4CCc4cc(Br)cnc43)CC2)CC1` (stereo not drawn) [Compound 12.0, 4-[2-[4-(3-BROMO-8-CHLORO-6,11-DIHYDRO-5H-BENZO[5,6]CYCLOHEPTA[1,2-b]PYRIDIN-11-YL)-1-PIPERAZINYL]-2-OXOETHYL]-N-HYDROXY-1-PIPERIDINECARBOXIMIDATE], in assay [1] (setting [5]), the IC50 was ≥ 0.8 nM.
